Data reported in patent US20120322819A1, “COMPOUND CONTAINING A NOVEL 4-ALKOXYPYRIMIDINE STRUCTURE AND MEDICINE CONTAINING SAME” (KOWA COMPANY, LTD., priority 2010, published 2012).

Target: T1, human PPARγ2 (Homo sapiens, UniProt P37231)
T1 construct: the amino acids 182 to 505 of human PPARγ2; expressed in transfected cells; host or cells: COST cells (so in the source)
T1 sequence (P37231 182-505): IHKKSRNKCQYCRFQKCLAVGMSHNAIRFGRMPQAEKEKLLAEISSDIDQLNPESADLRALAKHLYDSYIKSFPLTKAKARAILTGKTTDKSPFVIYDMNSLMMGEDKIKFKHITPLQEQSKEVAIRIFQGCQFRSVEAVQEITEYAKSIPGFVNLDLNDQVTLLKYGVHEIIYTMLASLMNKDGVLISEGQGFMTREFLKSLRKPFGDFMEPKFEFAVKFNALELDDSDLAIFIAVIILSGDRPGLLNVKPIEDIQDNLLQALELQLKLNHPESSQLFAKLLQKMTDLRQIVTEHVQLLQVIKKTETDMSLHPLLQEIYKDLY
Experiment: PPARγ activation activity, Gal4-PPARγ2 LBD chimera luciferase transfection assay in COST cells
Type: cell-based
Conditions: Gal4 (aa 1-147)/human PPARγ2 LBD (aa 182-505) chimera, luciferase reporter, 16 hours, rosiglitazone (3 to 10 μmol/L) = 100%, read-out: EC50 (50% effective concentration, PPARγ activation)
Experimental: PPARγ Activation Activity
The agonistic activity of the compounds of the invention on PPARγ was measured based on the transfection assay using COST cells (DS Pharma Biomedical Co., Ltd., Osaka, Japan), which are the cell line derived from the kidney of the African green monkey. COST cells were cultured under 5% CO2 concentration, and DMEM medium containing 10% fetal bovine serum, glutamic acid, and antibiotics was used as a medium.
As an expression vector, a chimera in which DNA binding domain of Ga14, which is a yeast transcription factor, and ligand binding domain of human PPARγ2 are fused, i.e., a fused product between the amino acids 1 to 147 of Gal4 transcription factor and the amino acids 182 to 505 of human PPARγ2, was used. Furthermore, as a reporter vector, a firefly luciferase containing five copies of Gal4 recognition sequence in the promoter region was used. Plasmid transfection to the cells was performed according to a method which uses jetPEI (trade name, manufactured by Funakoshi Co., Ltd., Tokyo, Japan). Furthermore, β-galactosidase expression vector was employed as an internal standard.
After the transfection of the cells, the medium was replaced with a DMEM medium (containing 1% serum) added with the test compound, and the cells were further cultured for 16 hours. After that, the luciferase activity and β-galactosidase activity in the cell lysis solution were measured.
For the present test, dimethylsulfoxide (DMSO) was used for dissolution and dilution of the test compounds, and during the cell treatment, the DMSO concentration in DMEM medium (containing 1% serum) was adjusted to 0.1%. As a positive compound, rosiglitazone (trade name, manufactured by ALEXIS Corporation, Switzerland) was used. The percentage (%) of the luciferase activity of the each test compound (1 to 30 μmol/L) was calculated when the luciferase activity of rosiglitazone (3 to 10 μmol/L) is 100% and the luciferase activity in the absence of the test compound is 0%. The 50% effective concentration of the test compound (EC50, 50% effect concentration) was calculated by using SAS Preclinical Package Ver 5.0 (trade name, manufactured by SAS institute Japan Co., Tokyo, Japan), which is a statistical analysis program.

EC50	Structure (SMILES)
1380 nM	CCCCc1nc(C)nc(OCC2OCCO2)c1Cc1ccc(-c2ccccc2-c2noc(=O)[nH]2)cc1 [Example 24, 3-{4′-{{4-[(1,3-dioxolan-2-yl)methoxy]-6-butyl-2-methylpyrimidin-5-yl}methyl}-[1,1′-biphenyl]-2-yl}-1,2,4-oxadiazol-5(4H)-one]
730 nM	CCCCc1nc(C)nc(OC(C(=O)OC)c2ccccc2)c1Cc1ccc(-c2ccccc2-c2noc(=O)[nH]2)cc1 (stereo not shown) [Example 25, methyl 2-{{6-butyl-2-methyl-5-{[2′-(5-oxo-4,5-dihydro-1,2,4-oxadiazol-3-yl)-[1,1-biphenyl]-4-yl]methyl}pyrimidin-4-yl}oxy}-2-phenylacetate]
2080 nM	CCCCc1nc(C)nc(OCC(=O)N2CCCC2)c1Cc1ccc(-c2ccccc2-c2noc(=O)[nH]2)cc1 [Example 29, 3-{4′-{{4-butyl-2-methyl-6-[2-oxo-2-(pyrrolidin-1-yl)ethoxy]pyrimidin-5-yl}methyl}-[1,1′-biphenyl]-2-yl}-1,2,4-oxadiazof-5 (4H)-one]
380 nM	CCCCc1nc(C)nc(OCc2nc(-c3ccc(C)cc3)oc2C)c1Cc1ccc(-c2ccccc2-c2noc(=O)[nH]2)cc1 [Example 32, 3-{4′-{{4-butyl-2-methyl-6-{[5-methyl-2-(p-tolyl)oxazol-4-yl]methoxy}pyrimidin-5-yl}methyl}-[1,1′-biphenyl]-2-yl}-1,2,4-oxadiazol-5(4H)-one]
1360 nM	CCCCc1nc(C)nc(OC2CCC(O)CC2)c1Cc1ccc(-c2ccccc2-c2noc(=O)[nH]2)cc1 (stereo not shown) [Example 34, 3-{4′-{{4-butyl-6-[(4-hydroxycyclohexyl)oxy]-2-methylpyrimidin-5-yl]methyl}-[1,1′-biphenyl]-2-yl}-1,2,4-oxadiazol-5 (4H)-one]
1530 nM	CCCCc1nc(C)nc(OC2CCC(=O)CC2)c1Cc1ccc(-c2ccccc2-c2noc(=O)[nH]2)cc1 [Example 35, 3-{4′-{{4-butyl-2-methyl-6-[(4-oxocyclohexyl)oxy]pyrimidin-5-yl}methyl}-[1,1′-biphenyl]-2-yl}-1,2,4-oxadiazol-5(4H)-one]
630 nM	CCCCc1nc(C)nc(OCCc2ccc(OCCOC)c(OC)c2)c1Cc1ccc(-c2ccccc2-c2noc(=O)[nH]2)cc1 [Example 36, 3-{4′-{{4-butyl-6-[3-methoxy-4-(2-methoxyethoxy)phenethoxy]-2-methylpyrimidin-5-yl}methyl}-[1,1′-biphenyl]-2-yl}-1,2,4-oxadiazol-5 (4H)-one]
840 nM	CCCCCc1nc(C)nc(OCCOC)c1Cc1ccc(-c2ccccc2-c2noc(=O)[nH]2)cc1 [Example 37, 3-{4′-{[4-(2-methoxyethoxy)-2-methyl-6-pentylpyrimidin-5-yl]methyl}-[1,1′-biphenyl]-2-yl}-1,2,4-oxadiazol-5(4H)-one]

The next lines start with the molecule.

Structure (SMILES)	EC50
CCCCc1nc(C)nc(OCC(N)=O)c1Cc1ccc(-c2ccccc2-c2noc(=O)[nH]2)cc1 [Example 3, 2-{{6-butyl-2-methyl-5-{[2′-(5-oxo-4,5-dihydro-1,2,4-oxadiazol-3-yl)-[1,1′-biphenyl]-4-yl]methyl}pyrimidin-4-yl}oxy}acetamide]	2870 nM
CCCCc1nc(C)nc(OCCCC(=O)NCC)c1Cc1ccc(-c2ccccc2-c2noc(=O)[nH]2)cc1 [Example 9, 4-{{6-butyl-2-methyl-5-{[2′-(5-oxo-4,5-dihydro-1,2,4-oxadiazol-3-yl)-[1,1′-biphenyl]-4-yl]methyl}pyrimidin-4-yl}oxy}-N-ethylbutanamide]	2800 nM
CCCCc1nc(C)nc(OCCCC(=O)N(CC)CC)c1Cc1ccc(-c2ccccc2-c2noc(=O)[nH]2)cc1 [Example 10, 4-{{6-butyl-2-methyl-5-{[2′-(5-oxo-4,5-dihydro-1,2,4-oxadiazol-3-yl)-[1,1′-biphenyl]-4-yl]methyl}pyrimidin-4-yl}oxy}-N,N-diethylbutanamide]	1790 nM
CCCCc1nc(C)nc(OCCOCC)c1Cc1ccc(-c2ccccc2-c2noc(=O)[nH]2)cc1 [Example 11, 3-{4′-{[4-butyl-6-(2-ethoxyethoxy)-2-methylpyrimidin-5-yl]methyl}-[1,1′-biphenyl]-2-yl}-1,2,4-oxadiazol-5(4H)-one]	870 nM
CCCCc1nc(C)nc(OCCOCCC)c1Cc1ccc(-c2ccccc2-c2noc(=O)[nH]2)cc1 [Example 12, 3-{4′-{[4-butyl-2-methyl-6-(2-propoxyethoxy)pyrimidin-5-yl]methyl}-[1,1′-biphenyl]-2-yl}-1,2,4-oxadiazol-5(4H)-one]	570 nM
CCCCc1nc(C)nc(OCCOCCOC)c1Cc1ccc(-c2ccccc2-c2noc(=O)[nH]2)cc1 [Example 13, 3-{4′-{{4-butyl-6-[2-(2-methoxyethoxy)ethoxy]-2-methylpyrimidin-5-yl}methyl}-[1,1′-biphenyl]-2-yl}-1,2,4-oxadiazol-5(4H)-one]	1600 nM
CCCCc1nc(C)nc(OCCOCc2ccccc2)c1Cc1ccc(-c2ccccc2-c2noc(=O)[nH]2)cc1 [Example 14, 3-{4′-{{4-[2-(benzyloxy)ethoxy]-6-butyl-2-methylpyrimidin-5-yl}methyl}-[1,1′-biphenyl]-2-yl}-1,2,4-oxadiazol-5(4H)-one]	290 nM
CCCCc1nc(C)nc(OCCOC(C)C)c1Cc1ccc(-c2ccccc2-c2noc(=O)[nH]2)cc1 [Example 16, 3-{4′-{[4-butyl-6-(2-isopropoxyethoxy)-2-methylpyrimidin-5-yl]methyl}-[1,1′-biphenyl]-2-yl}-1,2,4-oxadiazol-5(4H)-one]	640 nM
CCCCc1nc(C)nc(OCCSC)c1Cc1ccc(-c2ccccc2-c2noc(=O)[nH]2)cc1 [Example 17, 3-{4′-{{4-butyl-2-methyl-6-[2-(methylthio)ethoxy]pyrimidin-5-yl}methyl}-[1,1′-biphenyl]-2-yl}-1,2,4-oxadiazol-5(4H)-one]	410 nM
CCCCc1nc(C)nc(OCC(OC)OC)c1Cc1ccc(-c2ccccc2-c2noc(=O)[nH]2)cc1 [Example 19, 3-{4′-{[4-butyl-6-(2,2-dimethoxyethoxy)-2-methylpyrimidin-5-yl]methyl}-[1,1′-biphenyl]-2-yl}-1,2,4-oxadiazol-5(4H)-one]	880 nM
CCCCc1nc(C)nc(OCC(OCC)OCC)c1Cc1ccc(-c2ccccc2-c2noc(=O)[nH]2)cc1 [Example 20, 3-{4′-{[4-butyl-6-(2,2-diethoxyethoxy)-2-methylpyrimidin-5-yl]methyl}-[1,1′-biphenyl]-2-yl}-1,2,4-oxadiazol-5(4H)-one]	310 nM
CCCCc1nc(C)nc(OCC(C)O)c1Cc1ccc(-c2ccccc2-c2noc(=O)[nH]2)cc1 (stereo not shown) [Example 21, 3-{4′-{[4-butyl-6-(2-hydroxypropoxy)-2-methylpyrimidin-5-yl]methyl}-[1,1′-biphenyl]-2-yl}-1,2,4-oxadiazol-5(4H)-one]	400 nM
CCCCc1nc(C)nc(OCCCCOC)c1Cc1ccc(-c2ccccc2-c2noc(=O)[nH]2)cc1 [Example 23, 3-{4′-{[4-butyl-6-(4-methoxybutoxy)-2-methylpyrimidin-5-yl]methyl}-[1,1′-biphenyl]-2-yl}-1,2,4-oxadiazol-5(4H)-one]	710 nM
CCCc1nc2c(C)cc(-c3nc4ccccc4n3C)cc2n1Cc1ccc(-c2ccccc2C(=O)O)cc1 [telmisartan, reference compound]	1000 to 5000 nM
